Reference: US10064922B2, “Compositions and methods for immune tolerance induction” (The Research Foundation for The State University of New York, priority 2011, dated 2018)

Test system: HA mice
Test: Antigen specificity: ovalbumin given concomitantly with FVIII or FVIII-PS/PC at a distant site
Format: in vivo
Conditions: ovalbumin concomitantly administered at a distant anatomical site; ±SEM
Text: During the reverse vaccination strategy, it is desirable that the immunization should not interfere with the ability of the immune system to mount immune response against other antigens and pathogens. In order to investigate the antigen specificity and effect of immunization on the systemic immune suppression, another foreign antigen; ovalbumin (Ova) was concomitantly administered with either FVIII or FVIII-PS/PC complexes, but at a distant anatomical site.

## Ova: ovalbumin, another foreign antigen given concomitantly at a distant anatomical site
  Anti-FVIII Nab titers: no anti-FVIII Nabs
